Source: USRE50799E1, “JAK1 selective inhibitors and uses thereof” (Hangzhou HighlightII Pharmaceutical Co., Ltd, priority 2016, dated 2026)
pIC50: −log10 of the molar value.

What was measured:
Jak1 = target: T1, Jak1 (Homo sapiens, UniProt P23458); experiment: Jak1 biochemical assay (33P-ATP filter-binding, Reaction Biology Corp); conditions: for pIC50: biochemical kinase assay, 33P-ATP, filter-binding, read-out: Jak1 (range of IC50); for Jak1 inhibition, statement in words: biochemical assays, Jak1 versus Jak2
T1 construct: Reaction Biology Corp (performed the assay)
Procedure: (§1) Example B1: Jak1, 2, 3, Tyk2 Biochemical Assays
(§2) Assays were performed by Reaction Biology Corp, Malvern, Pa. The procedure is briefly described below.
(§3) Base Reaction buffer; 20 mM Hepes (pH 7.5), 10 mM MgCl2, 1 mM EGTA, 0.02% Brij35, 0.02 mg/ml BSA, 0.1 mM Na3VO4, 2 mM DTT, 1% DMSO. Required cofactors are added individually to each kinase reaction
(§4) 1. Prepare indicated substrate in freshly prepared Base Reaction Buffer
(§5) 2. Deliver any required cofactors to the substrate solution above
(§6) 3. Deliver indicated kinase into the substrate solution and gently mix
(§7) 4. Deliver compounds in DMSO into the kinase reaction mixture by Acoustic technology (Echo550; nanoliter range), incubate for 20 minutes at room temperature
(§8) 5. Deliver ^33P-ATP (specific activity 10 μCi/μl) into the reaction mixture to initiate the reaction.
(§9) 6. Incubate kinase reaction for 2 hours at room temperature
(§10) 7. Reactions are spotted onto P81 ion exchange paper
(§11) 8. Detect kinase activity by filter-binding method.

Jak2 = target: T2, Jak2 (Homo sapiens, UniProt O60674); experiment: Jak2 biochemical assay (33P-ATP filter-binding, Reaction Biology Corp); conditions: biochemical kinase assay, read-out: Jak2 (range of IC50)
T2 construct: Reaction Biology Corp (performed the assay)
Procedure: as §1, §2, §3, §4, §5, §6, §7, §8, §9, §10, §11

[1] = tested on: IL-6 induced STAT3 phosphorylation; experiment: Human whole blood p-STAT3 assay, IL-6 stimulation; assay type: cell-based; conditions: for pIC50: 0.25 h, IL-6 100 ng/ml 15 min, pSTAT3 ELISA, read-out: IL-6 (range of IC50, induced STAT3 phosphorylation); for Inhibition of IL-6 induced STAT3 phosphorylation, statement in words: versus TPO induced
Procedure: (§12) Example B2: Human Whole Blood p-STAT3 Assay
(§13) 1. Whole blood samples from human donors
2. IL-6 (R&D systems; Cat #206-IL)
(§14) 5. ELISA kit for pSTAT3 (Invitrogen; Cat # KH00481)
(§15) 1. 150 μl heparinized blood sample/tube.
(§16) 2. Compounds at various concentrations is added to the blood, incubate for 10 min at RT (10 doses, 2 replicates for each compound).
(§17) 3. Add IL-6 (final concentration: 100 ng/ml) or TPO (final conc: 50 ng/ml) to the blood for 15 min.
(§18) 4. After the stimulation, add 0.6 mL RBC lysis buffer (Qiagen 79217) and mix and rock for 1-2 minutes at room temperature before centrifugation to remove lyzed RBCs. This step may be repeated once if RBCs are not lyzed completely. Harvest the WBCs.
(§19) 5. Add 200 μl cell lysis buffer, ice 30 min.
(§20) 7. Transfer the supernatant to a new tube as cell lysate.
(§21) 8. Run ELISA procedure according to the product instruction of ELIA kit.

[2] = tested on: TPO induced STAT3 phosphorylation; experiment: Human whole blood p-STAT3 assay, TPO stimulation; assay type: cell-based; conditions: for pIC50: 0.25 h, TPO 50 ng/ml 15 min, pSTAT3 ELISA, read-out: TPO (range of IC50, induced STAT3 phosphorylation)
Procedure: as §12, §13
3. Thrombopoietin (TPO; R&D systems; Cat #288-TP)
as §14, §15, §16, §17, §18, §19, §20, §21

T2 sequence (O60674 whole entry): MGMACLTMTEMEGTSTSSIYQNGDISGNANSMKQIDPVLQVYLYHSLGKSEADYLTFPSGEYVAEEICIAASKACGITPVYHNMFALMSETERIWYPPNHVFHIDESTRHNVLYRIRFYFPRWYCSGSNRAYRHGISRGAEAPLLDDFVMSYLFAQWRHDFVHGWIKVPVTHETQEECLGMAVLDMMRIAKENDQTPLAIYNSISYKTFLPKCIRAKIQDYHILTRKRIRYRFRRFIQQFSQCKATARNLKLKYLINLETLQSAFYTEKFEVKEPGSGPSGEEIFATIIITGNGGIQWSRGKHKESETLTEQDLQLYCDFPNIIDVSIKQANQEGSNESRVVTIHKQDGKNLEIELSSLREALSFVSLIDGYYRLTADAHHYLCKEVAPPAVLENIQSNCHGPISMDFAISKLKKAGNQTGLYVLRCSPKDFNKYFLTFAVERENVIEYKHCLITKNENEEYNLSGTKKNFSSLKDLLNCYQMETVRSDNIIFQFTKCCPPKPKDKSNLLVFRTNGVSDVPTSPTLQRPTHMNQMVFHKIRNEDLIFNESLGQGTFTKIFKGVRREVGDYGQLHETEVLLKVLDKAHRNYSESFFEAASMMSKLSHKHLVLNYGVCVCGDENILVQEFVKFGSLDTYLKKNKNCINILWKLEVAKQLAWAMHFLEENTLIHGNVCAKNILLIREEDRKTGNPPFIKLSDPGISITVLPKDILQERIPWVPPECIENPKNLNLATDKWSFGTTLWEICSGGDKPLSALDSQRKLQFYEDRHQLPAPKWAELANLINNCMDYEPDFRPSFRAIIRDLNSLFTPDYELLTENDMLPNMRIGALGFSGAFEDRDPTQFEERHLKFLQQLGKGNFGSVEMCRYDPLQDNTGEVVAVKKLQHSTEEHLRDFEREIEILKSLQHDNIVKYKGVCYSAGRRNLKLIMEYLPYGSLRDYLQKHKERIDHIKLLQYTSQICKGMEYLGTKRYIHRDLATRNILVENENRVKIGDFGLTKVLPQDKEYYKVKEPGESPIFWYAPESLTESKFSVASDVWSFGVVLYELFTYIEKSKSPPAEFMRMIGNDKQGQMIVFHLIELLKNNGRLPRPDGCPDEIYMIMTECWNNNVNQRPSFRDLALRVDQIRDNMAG
T1 sequence (P23458 whole entry): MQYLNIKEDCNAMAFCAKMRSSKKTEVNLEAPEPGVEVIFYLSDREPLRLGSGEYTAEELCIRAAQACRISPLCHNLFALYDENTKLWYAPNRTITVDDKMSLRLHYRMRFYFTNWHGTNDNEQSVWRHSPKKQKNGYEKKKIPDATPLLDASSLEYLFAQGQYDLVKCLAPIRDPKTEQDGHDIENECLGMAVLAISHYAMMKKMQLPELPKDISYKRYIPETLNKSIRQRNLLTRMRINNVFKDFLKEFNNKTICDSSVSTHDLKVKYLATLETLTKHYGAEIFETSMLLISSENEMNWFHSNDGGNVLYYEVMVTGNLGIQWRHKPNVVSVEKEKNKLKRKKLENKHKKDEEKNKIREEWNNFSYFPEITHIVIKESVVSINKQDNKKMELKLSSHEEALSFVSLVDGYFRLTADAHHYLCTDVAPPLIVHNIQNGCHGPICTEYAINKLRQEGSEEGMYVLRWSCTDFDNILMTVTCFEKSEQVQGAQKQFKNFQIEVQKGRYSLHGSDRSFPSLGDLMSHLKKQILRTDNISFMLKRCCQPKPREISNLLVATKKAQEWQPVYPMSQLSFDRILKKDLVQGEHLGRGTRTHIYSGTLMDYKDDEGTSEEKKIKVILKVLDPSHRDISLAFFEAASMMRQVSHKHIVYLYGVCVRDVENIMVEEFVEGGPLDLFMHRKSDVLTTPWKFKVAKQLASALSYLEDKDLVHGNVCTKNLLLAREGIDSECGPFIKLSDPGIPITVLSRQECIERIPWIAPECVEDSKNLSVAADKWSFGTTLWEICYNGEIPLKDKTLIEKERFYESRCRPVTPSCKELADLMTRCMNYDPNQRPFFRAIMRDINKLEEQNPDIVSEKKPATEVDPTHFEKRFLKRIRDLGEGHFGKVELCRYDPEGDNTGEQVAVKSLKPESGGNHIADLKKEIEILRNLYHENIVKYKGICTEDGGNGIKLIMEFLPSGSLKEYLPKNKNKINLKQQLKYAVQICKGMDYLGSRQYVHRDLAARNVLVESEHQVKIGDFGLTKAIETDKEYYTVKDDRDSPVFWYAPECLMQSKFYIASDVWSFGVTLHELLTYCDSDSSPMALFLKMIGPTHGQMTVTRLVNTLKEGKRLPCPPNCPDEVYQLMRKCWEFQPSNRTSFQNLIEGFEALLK

| Compound | pIC50 (Jak1) | pIC50 (Jak2) | pIC50 [1] | Jak1 inhibition, statement in words (Jak1) | pIC50 [2] | Inhibition of IL-6 induced STAT3 phosphorylation, statement in words [1] | Activity in the TPO induced STAT3 phosphorylation assay, statement in words [2] |
| --- | --- | --- | --- | --- | --- | --- | --- |
| C[C@@H](O)c1nc2cnc3ccoc3c2n1[C@H]1CC[C@H](C#N)CC1 [Example 1, trans-4-[2-[(R)-1-Hydroxyethyl]-1H-furo [3,2-b]imidazo [4,5-d]pyridin-1-yl] cyclohexanecarbonitrile] | 6.00 to 7.00 |  |  |  |  |  |  |
| N#C[C@H]1CC[C@H](n2c(CO)nc3cnc4ccoc4c32)CC1 [Example 2, trans-4-[2-(Hydroxymethyl)furo[3,2-b]imidazo[4,5-d]pyridin-1-yl]cyclohexanecarbonitrile] | 6.00 to 7.00 |  |  |  |  |  |  |
| C[C@@H](O)c1nc2cnc3ccoc3c2n1C1CCN(C(=O)NCC(F)(F)F)C1 (stereo partly drawn) [Example 5, 3-[2-[(R)-1-Hydroxyethyl]-1H-furo[3,2-b]imidazo[4,5-d]pyridin-1-yl]-N-(2,2,2-trifluoroethyl)pyrrolidine-1-carboxamide] | < 6.00 | < 6.00 |  |  |  |  |  |
| C[C@@H](O)c1nc2cnc3ccoc3c2n1C1CCN(C(=O)NCC(F)(F)F)CC1 [Example 6, (R)-4-[2-(1-Hydroxyethyl)-1H-furo[3,2-b]imidazo[4,5-d]pyridin-1-yl]-N-(2,2,2-trifluoroethyl)piperidine-1-carboxamide] | < 6.00 | < 6.00 |  |  |  |  |  |

Second part, led by results:

| pIC50 (Jak1) | pIC50 (Jak2) | pIC50 [1] | Jak1 inhibition, statement in words (Jak1) | pIC50 [2] | Compound | Inhibition of IL-6 induced STAT3 phosphorylation, statement in words [1] | Activity in the TPO induced STAT3 phosphorylation assay, statement in words [2] |
| --- | --- | --- | --- | --- | --- | --- | --- |
| > 8.00 | 6.00 to 7.00 | > 5.30 | potent and selective Jak1 inhibitors | < 4.00 | C[C@@H](O)c1nc2cnc3ccoc3c2n1[C@H]1CC[C@H](CC#N)CC1 [Example 3, 2-[trans-4-[2-[(R)-1-Hydroxyethyl]furo[3,2-b]imidazo[4,5-d]pyridin-1-yl]cyclohexyl] acetonitrile] | selective inhibition of IL-6 induced STAT3 phosphorylation, but not TPO induced STAT3 phosphorylation |  |
| > 8.00 | 6.00 to 7.00 | > 5.30 | potent and selective Jak1 inhibitors | < 4.00 | C[C@@H](O)c1nc2cnc3ccoc3c2n1[C@H]1CC[C@H](CC#N)OC1 [Example 4, 2-[(2R,5S)-5-[2-[(R)-1-Hydroxyethyl]furo[3,2-b]imidazo[4,5-d]pyridin-1-yl]tetrahydropyran-2-yl] acetonitrile] | selective inhibition of IL-6 induced STAT3 phosphorylation, but not TPO induced STAT3 phosphorylation |  |
| > 8.00 | 6.00 to 7.00 | > 5.30 | potent and selective Jak1 inhibitors | < 4.00 | N#CC[C@H]1CC[C@H](n2c(CO)nc3cnc4ccoc4c32)CO1 [Example 7, 2-[(2R,5S)-5-[2-(Hydroxymethyl)furo[3,2-b]imidazo[4,5-d]pyridin-1-yl]tetrahydropyran-2-yl] acetonitrile] | selective inhibition of IL-6 induced STAT3 phosphorylation, but not TPO induced STAT3 phosphorylation |  |
| 6.00 to 7.00 | < 6.00 |  |  |  | N#CC[C@@H]1CC[C@H](n2c(CO)nc3cnc4ccoc4c32)CO1 [Example 8, 2-[(2S,5S)-5-[2-(Hydroxymethyl)furo[3,2-b]imidazo[4,5-d]pyridin-1-yl]tetrahydropyran-2-yl] acetonitrile] |  |  |
| > 8.00 | 6.00 to 7.00 |  | potent and selective Jak1 inhibitors |  | CCc1nc2cnc3ccoc3c2n1[C@H]1CC[C@H](CC#N)OC1 [Example 9, 2-[(2R,5S)-5-[2-Ethylfuro[3,2-b]imidazo[4,5-d]pyridin-1-yl]tetrahydropyran-2-yl] acetonitrile] |  |  |
| > 8.00 | 7.00 to 8.00 | > 5.30 |  | 4.00 to 4.70 | Cc1nc2cnc3ccoc3c2n1[C@H]1CC[C@H](CC#N)OC1 [Example 11, 2-[(2R,5S)-5-[2-Methylfuro [3,2-b]imidazo [4,5-d]pyridin-1-yl]tetrahydropyran-2-yl] acetonitrile] |  | some activity |
